Data set [1] deals with T1, rat GABA A receptor α1β3γ2 (Rattus norvegicus, UniProt P18508+P62813).
T1 construct: expressed in transfected cells; host or cells: SF9 insect cells
The data set can be described thus: [3H]flumazenil competition binding, GABA A α1β3γ2. Here is the method:
(§1) The affinity of compounds at GABA A receptor subtypes was measured by competition for [^3H]flumazenil (85 Ci/mmol; Amersham) binding to SF9 cells expressing rat receptors of composition α1β3γ2, α2β3γ2, α3β3γ2 and α5β3γ2.
(§2) Cellpellets were suspended in Krebs-tris buffer (4.8 mM KCl, 1.2 mM CaCl2, 1.2 mM MgCl2, 120 mM NaCl, 15 mM Tris; pH 7.5; binding assay buffer), homogenized by polytron for ca. 15 sec on ice and centrifuged in UZ for 30 min at 4° C. (100000 g; rotor: TFT 4594=300000 rpm). The cellpellets were resuspended in Krebs-tris buffer and homogenized by polytron for ca. 15 sec on ice. Aliquots of 1 ml were prepared, protein was measured (Bradford method) and the resulting membrane aliquots were stored at −70° C.
(§3) Radioligand binding assays were carried out in a volume of 200 μL (96-well plates) which contained 100 μL of cells, [^3H]flumazenil at a concentration of 1 nM for α1α2α3 subunits and 0.5 nM for α5 subunits and the test compound in the range of
(§4) 10^−10−3×10^−6 M. Nonspecific binding was defined by 10^−5 M diazepam and typically represented less than 5% of the total binding. Assays were incubated to equilibrium for 1 hour at 4° C. and harvested onto GF/C uni-filters (Packard) by filtration using a Packard harvester and washing with ice-cold wash buffer (50 mM Tris; pH 7.5). After drying, filter-retained radioactivity was detected by liquid scintillation counting. Ki values were calculated using Excel-Fit (Microsoft) and are the means of two determinations.

Data set [2] has as its target T2, rat GABA A receptor α2β3γ2 (Rattus norvegicus, UniProt P18508+P23576).
T2 construct: expressed in transfected cells; host or cells: SF9 insect cells
The data set can be described thus: [3H]flumazenil competition binding, GABA A α2β3γ2. As for the experimental part: as §1, §2, §3, §4

Data set [3] addresses T3, rat GABA A receptor α3β3γ2 (Rattus norvegicus, UniProt P18508+P20236).
T3 construct: expressed in transfected cells; host or cells: SF9 insect cells
Nature of the data set: [3H]flumazenil competition binding, GABA A α3β3γ2. Here is the method: as §1, §2, §3, §4

The target of data set [4] is T4, rat GABA A receptor α5β3γ2 (Rattus norvegicus, UniProt P18508+P19969).
T4 construct: expressed in transfected cells; host or cells: SF9 insect cells
The data set can be described thus: [3H]flumazenil competition binding, GABA A α5β3γ2. As for the experimental part:
as §1, §2, §3, §4

The conditions of data set [5]: in vivo; cited from earlier work.
For data set [6] the following is noted: McNamara and Skelton, Psychobiology 21:101-108; cited from earlier work.
The mark [7] stands for this setting: [3H]flumazenil 1 nM, SF9 cells expressing rat α1β3γ2, mean of two determinations, read-out: Ki[nM] ra1.
[8] abbreviates: [3H]flumazenil 1 nM, SF9 cells expressing rat α2β3γ2, mean of two determinations, read-out: Ki[nM] ra2.
[9] abbreviates: [3H]flumazenil 1 nM, SF9 cells expressing rat α3β3γ2, mean of two determinations, read-out: Ki[nM] ra3.
Setting [10] is: [3H]flumazenil 0.5 nM, SF9 cells expressing rat α5β3γ2, mean of two determinations, read-out: Ki[nM] ra5.

This is an account of results in US6743789B2, “Substituted imidazo[1,5-a][1,2,4]triazolo[4,3-d][1,4]benzodiazepine derivatives” (Hoffmann-La Roche Inc., priority 2000, dated 2004).

Counter-ions that a name gives are not always drawn. Like-named read-outs stand apart in the source and are kept apart here.

What is called Ki is a dissociation constant, usually derived from enzyme kinetics or from competition with a known ligand. As for `CCOC(=O)c1ncn2c1Cn1c(Cc3c[nH]c4c(OC)cccc34)nnc1-c1cc(OC)ccc1-2` [Example 37, Ethyl 3-methoxy-7-[(7-methoxy-1H-indol-3-yl)methyl]-9H-imidazo[1,5-a][1,2,4]triazolo[4,3-d][1,4]-benzodiazepine-10-carboxylate], the Ki came to 296 nM in data set [1] (setting [7]), 266 nM in data set [2] (setting [8]), 162 nM in data set [3] (setting [9]) and 8.2 nM in data set [4] (setting [10]).
The melting point is the temperature, or range, at which the solid turns liquid. Regarding `CCOC(=O)c1ncn2c1Cn1c(Cc3c[nH]c4ccccc34)nnc1-c1cc(Br)ccc1-2` [Example 47, Ethyl 3-bromo-7-(1H-indol-3-ylmethyl)-9H-imidazo[1,5-a][1,2,4]triazolo[4,3-d][1,4]-benzodiazepine-10-carboxylate], the melting point was 258 °C (dec.). Further, the Ki in data set [1] (setting [7]) worked out at 694 nM. Besides, the Ki in data set [2] (setting [8]) came out at 225 nM. Besides, the Ki in data set [3] (setting [9]) is 100 nM. The affinity in data set [4], expressed as Ki, was 13.1 nM.
`CCOC(=O)c1ncn2c1Cn1c(CO)nnc1-c1cc(OC)ccc1-2` [Example 25, Ethyl 7-hydroxymethyl-3-methoxy-9H-imidazo[1,5-a][1,2,4]triazolo[4,3-d][1,4]-benzodiazepine-10-carboxylate] came in with a melting point of 255 °C. This compound also showed a Ki in data set [1] of 95.3 nM. Further, the Ki in data set [2] (setting [8]) is 123 nM. For the same compound, the inhibition constant (Ki) in data set [3] (setting [9]) turned out to be 107 nM. Besides, the Ki in data set [4] is 5.9 nM.
For `CCOC(=O)c1ncn2c1Cn1c(Cc3ccncc3)nnc1-c1cc(Cl)ccc1-2` [Example 69, Ethyl 3-chloro-7-(pyridin-4-ylmethyl)-9H-imidazo[1,5-a][1,2,4]triazolo[4,3-d][1,4]-benzodiazepine-10-carboxylate], the Ki in data set [1] (setting [7]) came out at 360 nM; in data set [2] (setting [8]), 308 nM; in data set [3] (setting [9]), 158 nM; in data set [4], 7 nM.
Compound `CCOC(=O)c1ncn2c1Cn1c(Cc3cccc(OC)c3)nnc1-c1cc(Br)ccc1-2` [Example 50, Ethyl 3-bromo-7-(3-methoxy-benzyl)-9H-imidazo[1,5-a][1,2,4]triazolo[4,3-d][1,4]-benzodiazepine-10-carboxylate] registered a melting point of 111 to 113 °C. Further, the Ki in data set [1] (setting [7]) was found to be 1000 nM. Moreover, in data set [2] (setting [8]), the Ki came out at 409 nM. Besides, the Ki in data set [3] (setting [9]) worked out at 220 nM. Further, the Ki in data set [4] was 14.4 nM.
Take `CCOC(=O)c1ncn2c1Cn1c(Cc3ccc(-c4ccccc4)cc3)nnc1-c1cc(OC)ccc1-2` [Example 54, Ethyl 3-methoxy-7-[(biphenyl-4-yl)methyl]-9H-imidazo[1,5-a][1,2,4]triazolo[4,3-d][1,4]-benzodiazepine-10-carboxylate]: the Ki is 64.6 nM in data set [1], 148 nM in data set [2] (setting [8]), 108 nM in data set [3] (setting [9]) and 12.9 nM in data set [4].
For “3-Chloro-10-(5-cyclopropyl-1,2,4-oxadiazol-3-yl)-7-(1H-indol-3-ylmethyl)-9H-imidazo[1,5-a][1,2,4]triazolo[4,3-d][1,4]benzodiazepine [Example 61]”, the Ki was 67.3 nM in data set [1] (setting [7]), 53 nM in data set [2] (setting [8]), 18.9 nM in data set [3] (setting [9]) and 1.3 nM in data set [4] (setting [10]).
Regarding `Cc1ccc2c(c1)-c1nncn1Cc1c(-c3nc(C4CC4)no3)ncn1-2` [Example 6, 10-(3-Cyclopropyl-1,2,4-oxadiazol-5-yl)-3-methyl-9H-imidazo[1,5-a][1,2,4]triazolo[4,3-d][1,4]benzodiazepine], the melting point was in the range of 253 to 256 °C. Moreover, the Ki in data set [1] (setting [7]) came to 408 nM. Further, the Ki in data set [2] (setting [8]) came out at 362 nM. For the same compound, in data set [3] (setting [9]), the inhibition constant Ki turned out to be 149 nM. Also, the Ki in data set [4] was 10.8 nM.
The compound `CCOC(=O)c1ncn2c1Cn1cnnc1-c1cc(OC)ccc1-2` [Example 1, Ethyl 3-methoxy-9H-imidazo[1,5-a][1,2,4]triazolo[4,3-d][1,4]-benzodiazepine-10-carboxylate] displayed a melting point of 197 °C. The Ki in data set [1] stood at 30.6 nM. For the same compound, in data set [2], the inhibitory constant (Ki) turned out to be 57.6 nM. For the same compound, the inhibition constant Ki in data set [3] turned out to be 39.2 nM. For the same compound, the inhibition constant Ki in data set [4] (setting [10]) worked out at 1.3 nM.
As to `Clc1ccc2c(c1)-c1nnc(Cc3ccccc3)n1Cc1c(-c3noc(C4CC4)n3)ncn1-2` [Example 63, 7-Benzyl-3-chloro-10-(5-cyclopropyl-1,2,4-oxadiazol-3-yl)-9H-imidazo[1,5-a][1,2,4]triazolo[4,3-d][1,4]benzodiazepine], the Ki is 12.5 nM in data set [1], 10.7 nM in data set [2], 5.6 nM in data set [3] and 0.6 nM in data set [4] (setting [10]).
For “Ethyl 3-methoxy-7-(1H-indol-3-ylmethyl)-9H-imidazo[1,5-a][1,2,4]triazolo[4,3-d][1,4]-benzodiazepine-10-carboxylate [Example 20]”, the Ki in data set [1] (setting [7]) was found to be 803 nM; in data set [2] (setting [8]), 284 nM; in data set [3] (setting [9]), 191 nM; in data set [4] (setting [10]), 10.7 nM.
For `COC(=O)c1cc2c(cn1)[nH]c1ccccc12` [β-CCM], the “proconvulsant or convulsant activity” value in data set [5] is “proconvulsant or convulsant”. In addition, the “spatial learning in the Morris watermaze” value in data set [6] is listed as “enhance spatial learning”.
As to `CCOC(=O)c1ncn2c1Cn1c(Cc3ccncc3)nnc1-c1cc(Cl)ccc1-2` (as salt: hydrochloride) [Example 69, Ethyl 3-chloro-7-(pyridin-4-ylmethyl)-9H-imidazo[1,5-a][1,2,4]triazolo[4,3-d][1,4]-benzodiazepine-10-carboxylate], the melting point was found to be 213 °C.
`CCOC(=O)c1ncn2c1Cn1cnnc1-c1cc(Cl)ccc1-2` [Example 13, Ethyl 3-chloro-9H-imidazo[1,5-a][1,2,4]triazolo[4,3-d][1,4]benzodiazepine-10-carboxylate] gave a melting point of 226 to 227 °C. In data set [1], this compound displayed an inhibitory constant (Ki) of 34.9 nM. Further, in data set [2], the affinity corresponds to a Ki of 55.5 nM. The same compound yielded an inhibition constant Ki in data set [3] of 23.7 nM. For the same compound, the Ki in data set [4] (setting [10]) was found to be 1.2 nM.
For `CCOC(=O)c1ncn2c1Cn1c(C)nnc1-c1cc(OC)ccc1-2` [Example 19, Ethyl 3-methoxy-7-methyl-9H-imidazo[1,5-a][1,2,4]triazolo[4,3-d][1,4]-benzodiazepine-10-carboxylate] the same measures were 210 °C, 481 nM, 500 nM, 482 nM and 14.5 nM.
